From patent publication US11198695B2, “Fused ring derivative having MGAT-2 inhibitory activity” (Shionogi & Co., Ltd., priority 2017, dated 2021)
Values after ≈ are worked out from the molar mass of the structure shown.

Key:
hERG channel (IKr) = hERG channel (IKr) (Homo sapiens (Human), UniProt Q12809); assay: hERG test; assay type: cell-based; settings: pH 7.4, CHO cells expressing hERG channel, 10 μmol/L of test compound, read-out: % inhibition of tail peak current (IKr)
From the text: For the purpose of assessing risk of an electrocardiogram QT interval prolongation of the compound of the present invention, effects of the compound of the present invention on delayed rectifier K^+ current (IKr), which plays an important role in the ventricular repolarization process, was studied using CHO cells expressing human ether-a-go-go related gene (hERG) channel.
After a cell was retained at a membrane potential of −80 mV by whole cell patch clamp method using an automated patch clamp system (QPatch; Sophion BIoscience A/S), IKr induced by application of a leak potential of −50 mV followed by depolarization pulse stimulation at +20 mV for 2 seconds and, further, repolarization pulse stimulation at −50 mV for 2 seconds, was recorded. […] From the recording IKr, an absolute value of the tail peak current was measured based on the current value at the resting membrane potential using analysis software (Falster Patch; Sophion Bioscience A/S). Further, the % inhibition of tail peak current for the compound of the present invention relative to the tail peak current after application of the vehicle is calculated to assess influence of the compound of the present invention on IKr. (Result) % inhibition was shown at 10 μmol/L of test compound.

[1] = Solubility test (1% DMSO addition, pH 6.8 artificial intestinal juice); assay type: physicochemical; settings: pH 6.8 artificial intestinal juice with 1% DMSO, kinetic from dmso stock, 16 hours at 25° C.
Description: The solubility of the compound of the present invention was determined under 1% DMSO addition conditions. 10 mmol/L solution of the compound was prepared with DMSO, and 6 μL of the solution of the compound of the present invention was added to 594 μL of pH 6.8 artificial intestinal juice (118 mL of 0.2 mol/L NaOH test solution and water were added to 250 mL of 0.2 mol/L potassium dihydrogen phosphate test solution to reach 1000 mL). The mixture was left standing for 16 hours at 25° C., and the mixture was vacuum-filtered. The filtrate was two-fold diluted with methanol/water=1/1 (V/V), and the compound concentration in the filtrate was measured with HPLC or LC/MS/MS by the absolute calibration method.

[2] = Metabolism stability test; assay type: in vitro ADME; settings: human liver microsomes, 30 minutes, 37° C., NADPH, 0.5 μmol/L of test compound
Description: Using commercially available pooled human hepatic microsomes, the compound of the present invention was reacted for a constant time, a remaining rate was calculated by comparing a reacted sample and an unreacted sample, thereby, a degree of metabolism of the compound of the present invention in liver was assessed.
A reaction was performed (oxidative reaction) at 37° C. for 0 minute or 30 minutes in the presence of 1 mmol/L NADPH in 0.2 mL of a buffer (50 mmol/L Tris-HCl pH 7.4, 150 mmol/L potassium chloride, 10 mmol/L magnesium chloride) containing 0.5 mg protein/mL of human liver microsomes. After the reaction, 50 μL of the reaction solution was added to 100 μL of a methanol/acetonitrile=1/1 (v/v) solution, mixed and centrifuged at 3000 rpm for 15 minutes. The compound of the present invention in the supernatant was quantified by LC/MS/MS, and a remaining amount of the compound of the present invention after the reaction was calculated, letting a compound amount at 0 minute reaction time to be 100%. (Result) Remaining rate was shown at 0.5 μmol/L of test compound.

CYP3A4 [3] = biological target: T1, CYP3A4 (Homo sapiens (Human), UniProt P08684); assay: CYP3A4 (MDZ) MBI test; assay type: in vitro ADME; settings: pooled human liver microsomes, preincubation 0 or 30 min
T1 sequence (P08684 whole entry): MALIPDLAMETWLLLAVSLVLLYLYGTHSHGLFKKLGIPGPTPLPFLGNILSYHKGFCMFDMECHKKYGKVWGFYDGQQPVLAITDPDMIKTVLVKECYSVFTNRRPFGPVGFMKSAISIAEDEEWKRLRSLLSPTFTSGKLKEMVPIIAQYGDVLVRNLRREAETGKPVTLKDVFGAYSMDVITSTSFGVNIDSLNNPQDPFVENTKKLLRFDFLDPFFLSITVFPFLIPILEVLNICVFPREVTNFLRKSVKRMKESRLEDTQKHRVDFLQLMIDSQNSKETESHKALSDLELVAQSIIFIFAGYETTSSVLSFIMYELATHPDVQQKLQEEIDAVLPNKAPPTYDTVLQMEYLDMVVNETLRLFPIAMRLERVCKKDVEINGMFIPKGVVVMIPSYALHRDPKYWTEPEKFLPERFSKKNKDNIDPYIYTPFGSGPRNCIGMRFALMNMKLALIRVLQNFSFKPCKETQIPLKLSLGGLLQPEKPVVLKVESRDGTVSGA
Description: CYP3A4 (MDZ) MBI test is a test of investigating mechanism based inhibition (MBI) potential on CYP3A4 by the enhancement of inhibitory degree of a metabolic reaction caused by the compound of the present invention. CYP3A4 inhibition was evaluated using pooled human liver microsomes by 1-hydroxylation reaction of midazolam (MDZ) as a marker reaction. […]
Pooled human liver microsomes and a solution of the compound of the present invention in K-Pi buffer (pH 7.4) as a pre-reaction solution were added to a 96-well plate at the composition of the pre-reaction. […] The plate on which each index reaction had been performed was centrifuged at 3000 rpm for 15 minutes, and thereafter 1-hydroxylated midazolam in the supernatant was quantified by LC/MS/MS.
The sample adding DMSO as a solvent to a reaction system instead of a solution dissolving the compound of the present invention was adopted as a control (100%). Remaining activity (%) was calculated at each concentration of the compound of the present invention compared to a control, and IC value was calculated by reverse-presumption by a logistic model using a concentration and an inhibition rate. […]

CYP2C9 = CYP2C9 (Homo sapiens (Human), UniProt P11712); assay: CYP inhibition test (tolbutamide methyl-hydroxylation); assay type: in vitro ADME; settings: pooled human liver microsomes
CYP2C9, sequence (P11712 whole entry): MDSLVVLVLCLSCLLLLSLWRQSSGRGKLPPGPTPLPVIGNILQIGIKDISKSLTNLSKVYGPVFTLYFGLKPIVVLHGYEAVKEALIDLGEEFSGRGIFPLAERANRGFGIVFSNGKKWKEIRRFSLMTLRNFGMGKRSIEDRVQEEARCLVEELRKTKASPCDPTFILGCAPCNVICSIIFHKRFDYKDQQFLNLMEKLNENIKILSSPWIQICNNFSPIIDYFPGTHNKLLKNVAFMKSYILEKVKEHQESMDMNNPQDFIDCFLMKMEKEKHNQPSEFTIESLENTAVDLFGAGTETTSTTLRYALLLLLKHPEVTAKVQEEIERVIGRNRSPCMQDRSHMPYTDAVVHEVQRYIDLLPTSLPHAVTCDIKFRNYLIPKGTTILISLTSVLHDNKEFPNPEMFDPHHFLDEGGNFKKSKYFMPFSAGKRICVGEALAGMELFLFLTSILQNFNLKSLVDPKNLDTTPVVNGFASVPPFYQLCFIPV
From the text: (§1) Using commercially available pooled human hepatic microsome, and employing, as markers, 7-ethoxyresorufin O-deethylation (CYP1A2), tolbutamide methyl-hydroxylation (CYP2C9), mephenytoin 4′-hydroxylation (CYP2C19), dextromethorphan O-demethylation (CYP2D6), and terfenadine hydroxylation (CYP3A4) as typical substrate metabolism reactions of human main five CYP enzyme forms (CYP1A2, 2C9, 2C19, 2D6, 3A4), an inhibitory degree of each metabolite production amount by the compound of the present invention was assessed. […]
(§2) As a reaction solution, each five kinds of substrates, human liver microsomes, or compound of the present invention in 50 mmol/L Hepes buffer were added to a 96-well plate at the composition as described above, and NADPH, as a cofactor was added to initiate metabolism reactions. […] After the centrifugation at 3000 rpm for 15 minutes, resorufin (CYP1A2 metabolite) in the supernatant was quantified by a fluorescent multilabel counter or LC/MS/MS, and tolbutamide hydroxide (CYP2C9 metabolite), mephenytoin 4′ hydroxide (CYP2C19 metabolite), dextrorphan (CYP2D6 metabolite), and terfenadine alcohol (CYP3A4 metabolite) were quantified by LC/MS/MS.
(§3) Addition of only DMSO being a solvent dissolving a drug to a reaction system was adopted as a control (100%). Remaining activity (%) was calculated. […]

CYP3A4 [4] = biological target: T1, CYP3A4; assay: CYP inhibition test (terfenadine hydroxylation); assay type: in vitro ADME; settings: pooled human liver microsomes
From the text: as §1, §2, §3

CYP2C19 = CYP2C19 (Homo sapiens (Human), UniProt P33261); assay: CYP inhibition test (mephenytoin 4'-hydroxylation); assay type: in vitro ADME; settings: pooled human liver microsomes
CYP2C19, sequence (P33261 whole entry): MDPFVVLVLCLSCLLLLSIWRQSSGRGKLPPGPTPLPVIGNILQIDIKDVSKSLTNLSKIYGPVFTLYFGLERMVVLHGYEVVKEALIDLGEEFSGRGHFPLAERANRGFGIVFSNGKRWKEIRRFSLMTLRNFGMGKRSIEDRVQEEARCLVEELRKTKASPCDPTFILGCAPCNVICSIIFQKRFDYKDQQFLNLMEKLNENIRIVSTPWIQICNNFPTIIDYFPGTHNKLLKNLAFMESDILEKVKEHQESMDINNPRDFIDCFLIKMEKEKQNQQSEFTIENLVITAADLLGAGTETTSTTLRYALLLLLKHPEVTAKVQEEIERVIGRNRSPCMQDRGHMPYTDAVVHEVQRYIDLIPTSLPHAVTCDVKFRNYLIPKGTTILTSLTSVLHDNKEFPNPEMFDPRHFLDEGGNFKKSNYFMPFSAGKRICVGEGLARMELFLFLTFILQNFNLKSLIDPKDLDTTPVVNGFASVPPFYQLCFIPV
From the text: as §1, §2, §3

CYP1A2 = CYP1A2 (Homo sapiens (Human), UniProt P05177); assay: CYP inhibition test (7-ethoxyresorufin O-deethylation); assay type: in vitro ADME; settings: pooled human liver microsomes
CYP1A2, sequence (P05177 whole entry): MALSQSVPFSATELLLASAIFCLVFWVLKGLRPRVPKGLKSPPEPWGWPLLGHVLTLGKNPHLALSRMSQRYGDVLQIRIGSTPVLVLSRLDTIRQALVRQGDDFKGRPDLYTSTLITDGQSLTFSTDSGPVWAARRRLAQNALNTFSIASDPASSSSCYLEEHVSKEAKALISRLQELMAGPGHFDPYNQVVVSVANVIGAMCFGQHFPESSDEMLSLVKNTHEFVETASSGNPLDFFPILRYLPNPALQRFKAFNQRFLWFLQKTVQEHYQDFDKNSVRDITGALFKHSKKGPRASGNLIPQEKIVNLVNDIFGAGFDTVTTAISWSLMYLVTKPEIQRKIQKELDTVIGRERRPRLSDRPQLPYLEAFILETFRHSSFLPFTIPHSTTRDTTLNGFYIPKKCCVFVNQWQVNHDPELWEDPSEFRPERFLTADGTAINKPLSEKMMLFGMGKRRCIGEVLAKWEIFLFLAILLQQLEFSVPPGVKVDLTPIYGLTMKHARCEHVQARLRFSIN
From the text: as §1, §2, §3

CYP2D6 = CYP2D6 (Homo sapiens (Human), UniProt P10635); assay: CYP inhibition test (dextromethorphan O-demethylation); assay type: in vitro ADME; settings: pooled human liver microsomes
CYP2D6, sequence (P10635 whole entry): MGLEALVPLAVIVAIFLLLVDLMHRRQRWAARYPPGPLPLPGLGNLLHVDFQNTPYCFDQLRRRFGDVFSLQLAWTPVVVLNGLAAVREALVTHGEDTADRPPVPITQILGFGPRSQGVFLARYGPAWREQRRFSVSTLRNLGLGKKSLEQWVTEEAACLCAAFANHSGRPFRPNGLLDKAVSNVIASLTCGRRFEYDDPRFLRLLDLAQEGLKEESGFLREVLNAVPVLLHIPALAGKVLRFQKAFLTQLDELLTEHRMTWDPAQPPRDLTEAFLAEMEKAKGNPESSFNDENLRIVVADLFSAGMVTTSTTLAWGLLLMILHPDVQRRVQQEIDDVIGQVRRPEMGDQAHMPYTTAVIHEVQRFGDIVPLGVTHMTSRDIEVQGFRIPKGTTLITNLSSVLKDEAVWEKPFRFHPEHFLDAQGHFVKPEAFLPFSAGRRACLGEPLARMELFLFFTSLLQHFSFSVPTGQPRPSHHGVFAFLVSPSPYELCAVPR
From the text: as §1, §2, §3

[5] = BA test (oral absorption); assay type: in vivo; settings: plasma; oral vs intravenous administration, mice or SD rats
Description: Materials and Methods for Experiments to Evaluate Oral Absorption
(1) Animals: the mice or SD rats were used.
(2) Breeding conditions: the mice or SD rats were allowed to freely take solid food and sterilized tap water.
(3) Setting of dosage and grouping: Oral administration and intravenous administration were performed with a predetermined dosage. Grouping was set as below. (dosage changed per compound)
Oral administration: 1 to 30 mg/kg (n=2 to 3)
Intravenous administration: 0.5 to 10 mg/kg (n=2 to 3)
(4) Preparation of administration solution: Oral administration was performed in the form of a suspension or a solution. Intravenous administration was performed after solubilization.
(5) Routes of administration: Oral administration was performed mandatory into the stomach by oral sonde. […]
(6) Evaluation items: blood was collected over time, and the plasma concentration of the compound of the present invention was measured by LC/MS/MS.
(7) Statistical analysis: regarding the transition of the plasma concentration of the compound of the present invention, the area under the plasma concentration-time curve (AUC) was calculated by non-linear least squares program WinNonlin (registered trademark), and the bioavailability (BA) of the compound of the present invention was calculated from the AUCs of the oral administration group and intravenous administration group.

recombinant human MGAT2 = recombinant human MGAT2 (Homo sapiens (Human), UniProt Q3SYC2); assay: Measurement of human MGAT2 inhibitory activity; assay type: biochemical; settings: read-out: IC50 (concentration exhibiting 50% enzyme inhibition), Table 53
recombinant human MGAT2, sequence (Q3SYC2 whole entry): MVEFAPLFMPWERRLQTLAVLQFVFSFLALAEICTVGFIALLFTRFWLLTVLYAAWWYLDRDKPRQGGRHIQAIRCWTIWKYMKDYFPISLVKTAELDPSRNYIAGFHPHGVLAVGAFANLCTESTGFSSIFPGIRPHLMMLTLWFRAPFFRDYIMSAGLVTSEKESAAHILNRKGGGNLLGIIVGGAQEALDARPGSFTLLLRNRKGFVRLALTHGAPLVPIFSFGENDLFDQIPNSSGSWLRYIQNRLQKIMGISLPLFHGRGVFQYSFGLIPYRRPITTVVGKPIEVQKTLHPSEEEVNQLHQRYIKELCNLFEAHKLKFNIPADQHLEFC
Procedure, shortened: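 Membrane fraction of Sf9 cells expressing N-terminally Flag-tagged full-length human MGAT2, incubated 1 h at room temperature in 100 mmol/L phosphate pH 7.4 with 2 mmol/L DTT. The substrate solution held 30 μmol/L 2-oleoylglycerol and 10 μmol/L oleoyl-CoA. Diolein product was quantified by RapidFire ESI Q-TOF MS against diolein-d5 internal standard; % inhibition was set relative to with/without-enzyme controls.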

Powder solubility test = assay type: physicochemical; settings: pH 6.8, aqueous buffer, thermodynamic from solid, JP-2 solution, 37° C.
Description: Appropriate quantity of the compound of the present invention was put in suitable containers. 200 μL of JP-1 solution (water was added to 2.0 g of sodium chloride and 7.0 mL of hydrochloric acid to reach 1000 mL), 200 μL of JP-2 solution (500 mL of water was added to 500 mL of phosphate buffer (pH 6.8)) or 20 mmol/L sodium taurocholate (TCA)/JP-2 solution (JP-2 solution was added to 1.08 g of TCA to reach 100 mL) was independently added to each container. When total amount was dissolved after adding the test reagent, the compound of the present invention was added appropriately. After sealing and shaking at 37° C. for 1 hour, solution is filtrated and 100 μL of methanol is added to 100 μL of each filtrate to dilute two-fold. The dilution rate is changed as necessary. After checking that there was no bubble and deposit, the container was sealed and shaken. The compound of the present invention was measured using HPLC by absolute calibration curve method.

hERG channel (IKr), sequence (Q12809 whole entry): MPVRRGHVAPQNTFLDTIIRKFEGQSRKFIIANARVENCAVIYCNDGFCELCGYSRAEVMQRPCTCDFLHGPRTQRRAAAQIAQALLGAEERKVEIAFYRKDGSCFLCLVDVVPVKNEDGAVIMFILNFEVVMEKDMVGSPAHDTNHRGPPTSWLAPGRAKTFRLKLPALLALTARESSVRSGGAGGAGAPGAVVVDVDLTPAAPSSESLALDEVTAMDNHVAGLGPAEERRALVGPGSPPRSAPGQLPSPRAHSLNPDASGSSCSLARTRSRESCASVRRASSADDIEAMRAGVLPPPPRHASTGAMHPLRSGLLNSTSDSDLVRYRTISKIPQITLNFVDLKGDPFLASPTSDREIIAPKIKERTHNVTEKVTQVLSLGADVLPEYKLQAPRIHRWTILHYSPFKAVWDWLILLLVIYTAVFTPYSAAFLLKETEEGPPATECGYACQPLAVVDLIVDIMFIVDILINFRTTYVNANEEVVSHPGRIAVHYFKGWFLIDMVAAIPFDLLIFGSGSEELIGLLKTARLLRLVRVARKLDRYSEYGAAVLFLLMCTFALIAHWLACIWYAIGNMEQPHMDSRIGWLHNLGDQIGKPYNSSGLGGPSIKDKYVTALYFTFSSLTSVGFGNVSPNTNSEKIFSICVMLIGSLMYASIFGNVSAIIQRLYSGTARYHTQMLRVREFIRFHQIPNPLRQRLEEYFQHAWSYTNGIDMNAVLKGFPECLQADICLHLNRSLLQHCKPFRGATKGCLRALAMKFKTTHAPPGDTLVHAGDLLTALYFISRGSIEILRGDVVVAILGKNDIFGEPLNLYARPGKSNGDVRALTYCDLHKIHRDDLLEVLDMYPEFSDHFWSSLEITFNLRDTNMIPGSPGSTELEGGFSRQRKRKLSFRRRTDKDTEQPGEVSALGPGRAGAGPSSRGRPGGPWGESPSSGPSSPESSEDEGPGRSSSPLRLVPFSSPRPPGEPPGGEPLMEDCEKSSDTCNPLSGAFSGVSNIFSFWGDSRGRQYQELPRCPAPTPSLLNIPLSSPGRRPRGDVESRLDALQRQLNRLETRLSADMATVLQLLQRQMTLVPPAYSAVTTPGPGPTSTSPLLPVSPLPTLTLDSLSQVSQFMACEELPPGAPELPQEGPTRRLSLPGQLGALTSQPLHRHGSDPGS

Row | Compound | inhibition at 10 min, 10 μmol/L (hERG channel (IKr)) [%] | solubility at 16 h [1] [µM] | Remaining rate (%) [2] [%] | CYP3A4 (MDZ) MBI judgement (Shifted IC) (CYP3A4 [3]) | IC50 (CYP2C9) [µM] | IC50 (CYP3A4 [4]) [µM] | IC50 (CYP2C19) [µM] | IC50 (CYP1A2) [µM] | IC50 (CYP2D6) [µM] | bioavailability [5] [%] | IC50 (recombinant human MGAT2) [µM] | solubility at 1 h (Powder solubility test) [µM]
1 | CS(=O)(=O)CC(=O)Nc1c2c(nn1CCCOC(F)(F)F)C[C@]1(CCc3cc(OCC(F)(F)F)ccc31)NC2=O [Compound I-253] | 6.9 | > 50 | 76.8 | – | – | – | – | – | – | – | – | –
2 | Cc1ccc(-n2nc3c(c2NC(=O)CS(C)(=O)=O)C(=O)N[C@@]2(CCc4cc(OCCCC(F)(F)F)ccc42)C3)nn1 [II-103] | – | > 50 | 95.6 | Negative (a case that Shifted IC was 1.0 or less was regarded as Negative) | > 20 | > 20 | > 20 | > 20 | > 20 | – | – | –
3 | Cc1ccc(-n2nc3c(c2NC(=O)CS(C)(=O)=O)C(=O)N[C@](C)(c2ccc(OCC(F)(F)F)cc2F)C3)nc1 [II-94] | – | > 50 | 98.4 | – | – | – | – | – | – | 73 | 0.00381 | 3.4 (≈ 1.94 µg/mL)
